Test system: KRAS PDC multicell spheroid viability
Assay: Anticancer human tumor 521955-158-R6-J3-PDC patient-derived pancreatic carcinoma cell line growth inhibition [KRAS2]
Details: for IC50: curve of first compound; for viability, T/C: stronger effect = lower value
Description: Multicellular complex tumor spheroid response to RAS pathway inhibitors in combination with a targeted agents in patient-derived cell lines with oncogenic KRAS variants from multiple cancer types
A high-throughput screen of multi-cell type tumor spheroids was designed to identify active combinations of targeted small molecules and KRAS pathway inhibitors. Complex spheroids include a stromal component modeled by human endothelial cells (HUVEC) and fibroblasts modeled by human mesenchymal stem cells (MSCs). The concentration ranges selected for each drug and investigational agent were based upon clinically achievable concentrations if the clinical Cmax of the agent was known.
Compounds. The drugs and investigational agents: BI-3406 (NSC825286), BAY-293 (NSC824723), batoprotafib (TNO155; NSC825523), sotorasib (AMG 510; NSC818433), MRTX1257 (NSC819558), elimusertib (BAY 1895344; NSC800525), molibresib (GSK525762; NSC774829), temuterkib (LY3214996; NSC803410), venetoclax (NSC766270), alisertib (NSC759677), olaparib (NSC753686), talazoparib (NSC767125), erdafitinib (NSC781556), ipatasertib (NSC767898), cabozantinib (NSC761068), nintedanib (NSC756659), abemaciclib (NSC768073), docetaxel (NSC628503), trametinib (NSC758246), and sapanisertib (NSC764658) were obtained from the National Cancer Institute (NCI) Developmental Therapeutics Program Chemical Repository. The FDA-approved anticancer drug set is available from the Developmental Therapeutics Program. […] The stock solutions were prepared in dimethyl sulfoxide (DMSO, Sigma-Aldrich, St. Louis, MO, cat. D2650) at 800-fold the tested concentration and stored at -70 degrees C prior to their use. All drugs and investigational agents were tested over a range starting from a high concentration at or near the clinical Cmax and decreasing in half-log increments. If the clinical Cmax for an agent had not been determined, the highest concentration tested was 10 microM.
Cell Culture. All cells were maintained in an incubator at 37 degrees C and 5% CO2 with 95% humidity. The PDC lines were cultured according to standard operating procedures established by the NCI PDMR (https://pdmr.cancer.gov/sops/default.htm). Briefly, all PDCs were thawed and cultured in Matrigel-coated flasks prepared with a working solution of 1X Ham's F-12 nutrient mix, without supplementation (Invitrogen, Waltham, MA, cat. 11765054), 100 U/mL penicillin-streptomycin (Invitrogen, cat. 15140122), and 2.5% Matrigel (Corning Inc., Corning, NY, cat. 354248) for the first three passages. All PDCs were cultured in complete DMEM/F-12 media containing advanced DMEM/F-12 (Invitrogen, cat. 12634028), 4.9% defined fetal bovine serum, heat inactivated (HyClone Laboratories Inc., Logan, UT, cat. SH30070.03HI), 389 ng/mL hydrocortisone (Sigma-Aldrich, cat. H4001), 9.7 ng/mL human EGF recombinant protein (Invitrogen, cat. PHG0313), 23.4 microg/mL adenine (Sigma-Aldrich, cat. A2786), 97.3 U/mL penicillin-streptomycin (Invitrogen, cat. 15140122), 1.9 mM L-glutamine (Invitrogen, cat. 25030081), and 9.7 microM Y-27632 dihydrochloride (Tocris Bioscience, Bristol, United Kingdom, cat. 1254). The PDCs were cultured in complete DMEM/F12 media without 9.7 microM Y-27632 dihydrochloride for at least two passages prior to the screen. The established cell line HOP-62 was cultured in RPMI 1640 medium, HEPES (Invitrogen, cat. 22400105) with 10% defined fetal bovine serum (HyClone Laboratories Inc., cat. SH30070.03) and 2 mM L-glutamine (Invitrogen, cat. 25030081). The pooled donor HUVEC were cultured in endothelial cell growth medium 2 (PromoCell, Heidelberg, Germany, cat. C-22011) and the hMSC were cultured in mesenchymal stem cell growth medium 2 (PromoCell, cat. C-28009). For all experiments, HUVEC and hMSC were used at passages </=5, while the malignant cell lines were used at passages </=15. […]

[1] = second compound 0.1 µM, first compound 0.00316 µM
[2] = second compound 0.1 µM, first compound 0.01 µM
[3] = second compound 0.1 µM, first compound 0.0316 µM
[4] = second compound 0.1 µM, first compound 0.1 µM
[5] = second compound 0.316 µM, first compound 0.00316 µM
[6] = second compound 0.316 µM, first compound 0.01 µM
[7] = second compound 0.316 µM, first compound 0.0316 µM
[8] = second compound 0.316 µM, first compound 0.1 µM
[9] = second compound 1 µM, first compound 0.00316 µM
[10] = second compound 1 µM, first compound 0.01 µM
[11] = second compound 1 µM, first compound 0.0316 µM
[12] = second compound 1 µM, first compound 0.1 µM
[13] = second compound 3.16 µM, first compound 0.00316 µM
[14] = second compound 3.16 µM, first compound 0.01 µM
[15] = second compound 3.16 µM, first compound 0.0316 µM
[16] = second compound 3.16 µM, first compound 0.1 µM
[17] = second compound 10 µM, first compound 0.00316 µM
[18] = second compound 10 µM, first compound 0.01 µM
[19] = second compound 10 µM, first compound 0.0316 µM
[20] = second compound 10 µM, first compound 0.1 µM
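Also: drug exposure lasted seven days.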
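For viability, T/C in this document: 100% = DMSO vehicle wells and lower means fewer viable cells.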

CCN1CCN(Cc2ccc(Nc3ncc(F)c(-c4cc(F)c5nc(C)n(C(C)C)c5c4)n3)nc2)CC1 + C=CC(=O)N1CCN(c2nc(=O)n(-c3c(C)ccnc3C(C)C)c3nc(-c4c(O)cccc4F)c(F)cc23)C(C)C1
IC50 (second compound 0.1 µM): > 1 µM | IC50 (second compound 0.316 µM): > 1 µM | IC50 (second compound 1 µM): > 1 µM | IC50 (second compound 3.16 µM): > 1 µM | IC50 (second compound 10 µM): > 1 µM | viability, T/C [1]: 102% | viability, T/C [2]: 88.8% | viability, T/C [3]: 86.1% | viability, T/C [4]: 74.2% | viability, T/C (second compound 0.1 µM, first compound 0.316 µM): 83.6% | viability, T/C (second compound 0.1 µM, first compound 1 µM): 97.6% | viability, T/C [5]: 95.8% | viability, T/C [6]: 90.6% | viability, T/C [7]: 78.7% | viability, T/C [8]: 86% | viability, T/C (second compound 0.316 µM, first compound 0.316 µM): 88.2% | viability, T/C (second compound 0.316 µM, first compound 1 µM): 88.5% | viability, T/C [9]: 111% | viability, T/C [10]: 91.9% | viability, T/C [11]: 111% | viability, T/C [12]: 94.3% | viability, T/C (second compound 1 µM, first compound 0.316 µM): 85.6% | viability, T/C (second compound 1 µM, first compound 1 µM): 125% | viability, T/C [13]: 87.6% | viability, T/C [14]: 89.4% | viability, T/C [15]: 101% | viability, T/C [16]: 90.3% | viability, T/C (second compound 3.16 µM, first compound 0.316 µM): 109% | viability, T/C (second compound 3.16 µM, first compound 1 µM): 114% | viability, T/C [17]: 63.2% | viability, T/C [18]: 73.2% | viability, T/C [19]: 75.3% | viability, T/C [20]: 70.4% | viability, T/C (second compound 10 µM, first compound 0.316 µM): 85.5% | viability, T/C (second compound 10 µM, first compound 1 µM): 114%

Cn1ncnc1[C@H]1c2n[nH]c(=O)c3cc(F)cc(c23)N[C@@H]1c1ccc(F)cc1 + C=CC(=O)N1CCN(c2nc(=O)n(-c3c(C)ccnc3C(C)C)c3nc(-c4c(O)cccc4F)c(F)cc23)C(C)C1
IC50 (second compound 0.1 µM): > 0.1 µM | IC50 (second compound 0.316 µM): > 0.1 µM | IC50 (second compound 1 µM): > 0.1 µM | IC50 (second compound 3.16 µM): > 0.1 µM | IC50 (second compound 10 µM): > 0.1 µM | viability, T/C (second compound 0.1 µM, first compound 0.000316 µM): 106% | viability, T/C (second compound 0.1 µM, first compound 0.001 µM): 109% | viability, T/C [1]: 101% | viability, T/C [2]: 107% | viability, T/C [3]: 96.5% | viability, T/C [4]: 95% | viability, T/C (second compound 0.316 µM, first compound 0.000316 µM): 110% | viability, T/C (second compound 0.316 µM, first compound 0.001 µM): 102% | viability, T/C [5]: 116% | viability, T/C [6]: 94.9% | viability, T/C [7]: 105% | viability, T/C [8]: 108% | viability, T/C (second compound 1 µM, first compound 0.000316 µM): 114% | viability, T/C (second compound 1 µM, first compound 0.001 µM): 109% | viability, T/C [9]: 118% | viability, T/C [10]: 97.5% | viability, T/C [11]: 110% | viability, T/C [12]: 118% | viability, T/C (second compound 3.16 µM, first compound 0.000316 µM): 102% | viability, T/C (second compound 3.16 µM, first compound 0.001 µM): 104% | viability, T/C [13]: 101% | viability, T/C [14]: 100% | viability, T/C [15]: 99.7% | viability, T/C [16]: 96.4% | viability, T/C (second compound 10 µM, first compound 0.000316 µM): 81.8% | viability, T/C (second compound 10 µM, first compound 0.001 µM): 80.2% | viability, T/C [17]: 83.4% | viability, T/C [18]: 83.2% | viability, T/C [19]: 82.5% | viability, T/C [20]: 78%

Reference: PubChem BioAssay AID1963864 (Molecular Pharmacology Branch, DTP, NCI, 2024)
